{"source": "patent US11406622B2", "about": "“Glaucocalyxin a derivative, pharmaceutically acceptable salt thereof, or pharmaceutical composition thereof and uses thereof in preparation of drugs for treating psoriasis” (SUZHOU PHARMAVAN CO., LTD., priority 2017, dated 2022)", "type_in_all_cases": "cell-based", "key": {"[1]": {"tested_on": "human keratinocytes (HaCaT)", "assay": "Effect on proliferation of human keratinocytes, CCK-8, 48 h (Example 5)", "conditions": "48 hours of treatment", "description": "In this example, the glaucocalyxin A derivatives of the present application, or pharmaceutically acceptable salts thereof, were examined for the effect on the proliferation of human keratinocytes. In this example, the glaucocalyxin A derivatives as shown in Table 1 were examined by using the following procedure. A cell suspension was prepared and inoculated into three 96-well plates at 8000 cells in a volume of 150 μl per well, which were then cultured overnight in an incubator at 37° C., 5% CO2. On the next day, 50 μl of test compound solution at different concentrations was added to each well. Triplicate wells were set up for each concentration. A vehicle control group (without compound), a cell control group (without compound and vehicle), and a blank medium control group (without cells, a well for null adjustment) were also set up, and cultured for an additional 48 hours. CCK-8 staining working solution was added at 110 μL per well, and cultured for additional 1-4 h. At the end of the culture, the absorbances were measured at 450 nm (OD450 nm) on a Bio-Tek enzyme-linked immunosorbent assay. The results were expressed as the mean OD450 nm value of triplicates±standard deviation (x±sd). The Origin 7.0 was used for plotting and analysis. A fitting curve was obtained by plotting the OD value of each group against the logarithmic concentration of the test compound, and then the IC50 value was determined."}, "[2]": {"tested_on": "mouse spleen lymphocytes", "assay": "ConA-induced proliferation of mouse spleen lymphocytes, MTT (Example 8)", "conditions": "48 h, 5 μg/mL ConA", "description": "In this example, the glaucocalyxin A derivatives and pharmaceutically acceptable salts thereof were detected for the effect thereof on ConA-induced proliferation of mouse spleen lymphocytes.\n2×10^7/mL cell suspension was prepared and a 5 μg/μL ConA stock solution was added thereto at a final concentration of 5 μg/mL. The resulting mixture was inoculated into a 96-well culture plate at 0.1 mL per well. Then 0.1 mL of test compound at different concentrations was added to each well. Triplicate or quadruplicate wells were set up for each group, and a vehicle control group (without compound), a stimulant control group (with ConA, without compound, and without vehicle), a cell control group (without ConA, without compound, and without vehicle), and a blank medium control group (without cells, a well for null adjustment) were also set up, and cultured at 37° C., 5% CO2 for 48 h. MTT solution at 5 mg/mL was added at 20 μl per well, and cultured for an additional 4 hours. The culture plate was taken out and centrifuged at 1000 rpm for 10 min. The supernatant of each well was aspirated, and 100 μL of SDS cell lysis solution was added to each well, and cultured overnight. On the next day, the absorbance at 550 nm (OD550nm) was measured on an enzyme-linked immunoassay analyzer. The results were expressed as the mean OD550nm value of the triplicates or quadruplicates±standard deviation (x±sd). SPSS software version 17.0 was used for statistical analysis of the mean values, that is, the vehicle group was compared with the stimulant group, and the test group of each compound concentration was compared with the corresponding vehicle control group. The cell survival rate of each group was calculated according to the mean value for the compound treatment group and the mean value for the vehicle control group, that is, the cell survival rate (%)=the mean value for the compound treatment group/the mean value for the vehicle control group×100%. A linear regression equation was obtained by plotting the cell survival rate of each group against the concentration of the test compound, statistical test of the correlation coefficient was conducted, and then the IC50 value was determined."}, "[3]": {"tested_on": "HaCaT keratinocytes", "assay": "Time- and dose-dependent inhibition of proliferation of human keratinocytes, CCK-8 (Example 6)", "description": "In this example, the glaucocalyxin A derivatives of the present application and pharmaceutically acceptable salts thereof were examined for the relationship between the inhibitory rate thereof on the proliferation of human keratinocytes and its concentration. Compound 23 as shown in Table 1 was used as an exemplary compound to be examined by using the following procedure.\nA cell suspension was prepared and inoculated into three 96-well plates at 8000 cells in a volume of 150 μl per well, which were then cultured overnight in an incubator at 37° C., 5% CO2. On the next day, 50 μl of test compound solution at different concentrations was added to each well. Triplicate wells were set up for each concentration. A vehicle control group (without compound), a cell control group (without compound and without vehicle), and a blank medium control group (without cells, a well for null adjustment) were also set up, and cultured for additional 24, 48, and 72 hours. CCK-8 staining working solution was added at 110 μL per well, and cultured for additional 1-4 h. At the end of the culture, the absorbances were measured at 450 nm (OD450 nm) on a Bio-Tek enzyme-linked immunosorbent assay. The results were expressed as the mean OD450 nm value of the triplicates±standard deviation (x±sd). Prism Graph was used for plotting and analysis. The cell inhibitory rate of each group was calculated according to the mean value of the treatment group with each compound at each concentration and the mean value of the vehicle control group, that is, the cell inhibitory rate (%)=[1−(the mean value of the treatment group−the blank control group)/(the mean value of the vehicle control group−the blank control group)]×100%. A fitting curve was obtained by plotting the cell inhibitory rate of each group against the logarithmic concentration (Log C) of the test compound, and then the IC50 value was determined."}}, "note": "pIC50: −log10 of the molar value. Values joined by “and” are separate entries in the source; they are usually repeats but may differ in a detail not shown here. Identical values can stand only once. Like-named read-outs stand apart in the source and are kept apart here.", "data": [{"compound": "Br.C=C1C(=O)C23C(O)CC4C(C)(C)c5nc(N(C)C)sc5CC4(C)C2CCC1C3O", "note": "(centres unmarked) [Compound 23]", "values": [{"measurement": "IC50", "setting": "[1]", "value": 0.93, "unit": "µM"}, {"measurement": "OD550nm value (x ± sd)", "setting": "[2]; 0.78125 μg/mL", "value": 1.14}, {"measurement": "Survival rate (%)", "setting": "[2]; 0.78125 μg/mL", "value": 98, "unit": "%"}, {"measurement": "OD550nm value (x ± sd)", "setting": "[2]; 1.5625 μg/mL", "value": 1.18}, {"measurement": "Survival rate (%)", "setting": "[2]; 1.5625 μg/mL", "value": 101, "unit": "%"}, {"measurement": "OD550nm value (x ± sd)", "setting": "[2]; 3.125 μg/mL", "value": 0.52}, {"measurement": "Survival rate (%)", "setting": "[2]; 3.125 μg/mL", "value": 45, "unit": "%"}, {"measurement": "OD550nm value (x ± sd)", "setting": "[2]; 6.25 μg/mL", "value": 0.29}, {"measurement": "Survival rate (%)", "setting": "[2]; 6.25 μg/mL", "value": 25, "unit": "%"}, {"measurement": "OD550nm value (x ± sd)", "setting": "[2]; 12.5 μg/mL", "value": 0.07}, {"measurement": "Survival rate (%)", "setting": "[2]; 12.5 μg/mL", "value": 6, "unit": "%"}, {"measurement": "OD550nm value (x ± sd)", "setting": "[2]; 25 μg/mL", "value": 0.02}, {"measurement": "Survival rate (%)", "setting": "[2]; 25 μg/mL", "value": 2, "unit": "%"}, {"measurement": "OD550nm value (x ± sd)", "setting": "[2]; 50 μg/mL", "value": 0.02}, {"measurement": "Survival rate (%)", "setting": "[2]; 50 μg/mL", "value": 2, "unit": "%"}, {"measurement": "OD550nm value (x ± sd)", "setting": "[2]; 100 μg/mL", "value": 0.02}, {"measurement": "Survival rate (%)", "setting": "[2]; 100 μg/mL", "value": 1, "unit": "%"}, {"measurement": "pIC50", "setting": "[2]; linear regression", "value": "~5.03 and 5.03"}, {"measurement": "IC50 (μg/mL)", "setting": "[2]; linear regression", "value": "IC50 = 4.00 μg/mL"}, {"measurement": "effect on ConA-induced proliferation of mouse spleen lymphocytes (in words)", "setting": "[2]; range of concentrations tested", "value": "significant effect"}, {"measurement": "pIC50", "setting": "[3]; 24 h, read-out: IC50 at 24 h", "value": 5.71}, {"measurement": "pIC50", "setting": "[3]; 48 h, read-out: IC50 at 48 h", "value": 6.03}, {"measurement": "pIC50", "setting": "[3]; 72 h, read-out: IC50 at 72 h", "value": 6.10}]}]}
